This is an account of results in patent US6936624B2, “Agents for preserving technical materials against insects” (Nihon Bayer Agrochem K.K., priority 1991, dated 2005).

One may read the mortality as the percentage killed.

Assay [1] has as its system worker termites (Coptotermes formosanus). The experiment in a line: Formicidal test: treated filter paper in petri dish, termite mortality. The following applies: Coptotermes formosanus, 96 h, filter paper, 25° C., read-out: Mortality of termites after four days. It is filed as in vivo. An excerpt:
Examples of the active compounds according to the present invention • I.1: 1-(6-chloro-3-pyridylmethyl)-2-nitromethylene-imidazolidine • I.2: 3-(6-chloro-3-pyridylmethyl)-2-nitromethylene-thiazolidine • I.3: imidacloprid
Comparative compounds • A: phoxim • B: chlorpyriphos Preparation of test formulation: • Solvent: 3 parts by weight of xylene • Emulsifier: 1 part by weight of polyoxyethylene-alkylphenyl-ether
To prepare a suitable formulation of the active compound, 1 part by weight of each of the active compounds was mixed with the above-mentioned amount of the solvent containing the above-mentioned amount of the emulsifier, and the mixture was diluted with water to a predetermined concentration.
1 ml of the aqueous solution prepared in the above-mentioned procedure was uniformly applied using a pipette onto a filter paper that was placed in petri dish of 9 cm diameter. Ten head of worker termites (Coptotermes formosanus) were replaced into the petri dish and it was kept in a constant temperature chamber at 25° C.
After four days, the mortality of the termites was investigated. This test procedure was carried out in duplicate per each concentration of the active compounds under test.

Assay [2] relates to working termites and soldier termites (Coptotermes formosanus). Put plainly: whole plant or invertebrate. Conditions: for Degree of xylophagous damage in the pine tree block (0-5): after three weeks. Format: in vivo. The protocol: Small blocks of Japanese redpine tree (2 cm×2 cm×2 cm) were soaked for one minute into the aqueous solution prepared by the similar procedure to Example 8.
After air-dried, they were kept in a constant temperature chamber at 40° C. for four weeks. Then each of the thus treated blocks was placed in a polymeric cup (10 cm diameter) containing 150 ml of sandy loam of 20% moisture content. Into each of the polymeric cups, 100 head of working termites and 10 head of soldier termites (Coptotermes formosanus) were released. After three weeks, the degree of xylophagous damage in the block and the mortality of the termites were investigated.

Assay [3] concerns larvae of Hylotrupes bajulus. The following applies: comparative values, Holz als Roh- und Werkstoff 35 (1977) 233-237, table 6; cited from earlier work.
Assay [4] deals with Reticulitermes santonensis. Conditions: comparative values, Holz als Roh- und Werkstoff 35 (1977) 233-237, table 10; cited from earlier work.
The mark [5] stands for this setting: Coptotermes formosanus, read-out: Mortality termites after three weeks.

With `CCOP(=S)(OCC)O/N=C(\C#N)c1ccccc1` [A, 0-(α-cyanobenzylideneamino)0,0-diethylphosphorothioate, reference compound], the mortality at 0.32 ppm in assay [1] (0.32 ppm active compound) is 90%; in assay [2] (setting [5]), 0%. In addition, the mortality at 1.6 ppm in assay [1] (1.6 ppm active compound) was found to be 100%; in assay [2] (setting [5]), 0%. For the same compound, the results for the mortality at 8 ppm in assay [1] (8 ppm active compound) and in assay [2] (setting [5]) were 100% and 0%, respectively. Further, the mortality at 40 ppm was determined as 100% in assay [1] (40 ppm active compound) and 25% in assay [2] (setting [5]). Also, the “Degree of xylophagous damage in the pine tree block (0-5)” value in assay [2] (0.32 ppm) was 5; in assay [2] (1.6 ppm) it was 5; in assay [2] (8 ppm) it was 5; in assay [2] (40 ppm), 3. For the same compound, the toxic value is 7-12 g/m^3 in assay [3] and 400 g/m^3 in assay [4].
